System: Heterobothrium okamotoi
Assay: Trial 6: vitamin C enhancement trial on tiger puffer
Assay type: in vivo
Conditions: 5 g octanoic acid per 1 kg pellets (with or without 200 mg vitamin C per kg), oral, 15 days after first challenge
Excerpt: Fish tested: Tiger puffer weighing approximately 50.0 g in average.
Trial groups: Three groups, i.e., an octanoic-acid added group in which fish were fed diets added with octanoic acid, an octanoic-acid added/vitamin-C enhanced group in which fish were fed diets added with both octanoic acid and vitamin C, and a control group in which fish were fed diets not added with octanoic acid. The feeding rate was 2% of fish weight/day for each group.
Trial diets: The diets added with octanoic acid were prepared by spraying 5 g of octanoic acid to 1 kg of commercially available pellets for tiger puffer. The diets added with both octanoic acid and vitamin C were prepared by spraying 200 mg of vitamin C, dissolved in water, to 1 kg of the above diets added with octanoic acid. The control group fish were fed the commercially available pellets for tiger puffer.
Challenge trial: Each 5 pieces of fish from among a shoal of fish, in which no diseases such as parasitic infections were found, were put in a 100-liter water tank, and were fed the respective trial diets. After 7 days, approximately 750 individuals of oncomiracidia of Heterobothrium okamotoi were put into each water tank to infect the fish while water flow was stopped for 1 hour. The infection procedure was repeated every other day 5 times in total under the same condition. […]

For `CCCCCCCC(=O)O` [octanoic acid], which “number of parasites attaching to the gill” value is on record?
The value was “apparently fewer”.

— patent US20030162834A1, “Natural physiologically active material effective on fish diseases and fish food containing the material” (priority 1998, published 2003)
